According to US5614497A, “Peptide, production and use thereof” (Takeda Chemical Industries, Ltd., priority 1991, dated 1997):
*1 amine or outer side, *2 acyl side, *3 side chain or, on linkers, in order; H or OH if unused. Where a SMILES comes first, the peptide text is derived from it. [ ]: non-standard residue; d: D form. The star is where a group is joined. Tyr(3-F) = N[C@@H](Cc1ccc(O)c(F)c1)C(=O)O; Tyr(3-I) = N[C@@H](Cc1ccc(O)c(I)c1)C(=O)O; Phe(4-F) = N[C@@H](Cc1ccc(F)cc1)C(=O)O; Boc = CC(C)(C)OC(=O)*; CO = O=C([*:1])[*:2]; Ahx = NCCCCCC(=O)O; X1 = C1CCCN(*)CC1; βAla = NCCC(=O)O

Target: endothelin receptors
Assay: Receptor Binding Assay (displacement of radioactive-iodine-labeled endothelin-1 from swine heart membrane fraction)
Conditions: membrane fraction prepared from swine heart; endothelin-1 labeled with radioactive iodine; incubation at 25° C, 1 hour
Procedure: The membrane fraction prepared from swine heart was diluted to 0.15 mg/ml with an assaying buffer and dispensed to assaying tubes at 100 μl per tube. To this membrane fraction suspension were added 2 μl of a solution of endothelin-1labeled with 5 nM radioactive iodine and 3 μl of a 50% dimethylsulfoxide solution of the subject peptide, followed by incubation at 25° C. After 1 hour, the suspension was diluted with 900 μl of an ice-cooled assaying buffer and centrifuged at 12,000×G for 10 minutes to separate supernatant and precipitate. The precipitate contained cell membranes and endothelin receptors embedded therein. The receptor-bound endothelin, labeled with radioactive iodine, was also recovered in the precipitate. The radioactive iodine in this precipitate was counted, using a gamma ray counter, to determine the amount of radioactive-iodine-labeled endothelin bound to the endothelin receptors. The results of the quantitative determination are shown in IC50 (M) below.

| SMILES | IC50 |
| --- | --- |
| CC(C)C[C@H](NC(=O)OC(C)(C)C)C(=O)N[C@H](Cc1c[nH]c2ccccc12)C(=O)N[C@H](C)C(=O)NCCC(=O)N[C@@H](Cc1ccc(O)c(F)c1)C(=O)N[C@@H](Cc1ccc(F)cc1)C(=O)O [Example 38, Boc-Leu-(D)Trp-(D)Ala-βAla-(m-F)Tyr-(p-F)Phe-OH] (Boc-L[dW][dA][βAla][Tyr(3-F)][Phe(4-F)]-OH) | 60 nM |
| CC(C)C[C@H](NC(=O)OC(C)(C)C)C(=O)N[C@H](Cc1c[nH]c2ccccc12)C(=O)N[C@H](C)C(=O)NCCC(=O)N[C@@H](CCC(=O)O)C(=O)O [Reference Example 1, Boc-Leu-(D)Trp-(D)Ala-βAla-Glu--OH, reference compound] (Boc-L[dW][dA][βAla]E-OH) | 700 nM |
| CC(C)C[C@H](NC(=O)OC(C)(C)C)C(=O)N[C@H](Cc1c[nH]c2ccccc12)C(=O)N[C@H](C)C(=O)NCCC(=O)N[C@H](CC(C)C)C(=O)O [Reference Example 2, Boc-Leu-(D)Trp-(D)Ala-βAla-(D)Leu--OH, reference compound] (Boc-L[dW][dA][βAla][dL]-OH) | 420 nM |
| CC(C)C[C@H](NC(=O)OC(C)(C)C)C(=O)N[C@H](Cc1c[nH]c2ccccc12)C(=O)N[C@H](C)C(=O)NCCC(=O)N[C@@H](Cc1ccc(O)cc1)C(=O)N[C@@H](Cc1ccccc1)C(=O)O [Example 2, Boc-Leu-(D)Trp-(D)Ala-βAla-Tyr-Phe-OH] (Boc-L[dW][dA][βAla]YF-OH) | 9 nM |

More lines, in order of falling IC50, values ahead:

| IC50 | SMILES |
| --- | --- |
| 7.2 nM | CC(C)C[C@H](NC(=O)OC(C)(C)C)C(=O)N[C@H](Cc1c[nH]c2ccccc12)C(=O)N[C@H](C)C(=O)NCCCCCC(=O)N[C@@H](Cc1ccc(O)cc1)C(=O)N[C@@H](Cc1ccccc1)C(=O)O [Example 5, Boc-Leu-(D)Trp-(D)Ala-εAhx-Tyr-Phe-OH] (Boc-L[dW][dA][Ahx]YF-OH) |
| 4.6 nM | CC(C)C[C@H](NC(=O)OC(C)(C)C)C(=O)N[C@H](Cc1c[nH]c2ccccc12)C(=O)N[C@H](C)C(=O)NCCC(=O)N[C@@H](Cc1ccc(O)cc1)C(=O)N[C@H](Cc1ccccc1)C(=O)O [Example 1, Boc-Leu-(D)Trp-(D)Ala-βAla-Tyr-(D)Phe-OH] (Boc-L[dW][dA][βAla]Y[dF]-OH) |
| 0.71 nM | CC(C)C[C@H](NC(=O)N1CCCCCC1)C(=O)N[C@H](Cc1c[nH]c2ccccc12)C(=O)N[C@H](C)C(=O)NCCC(=O)N[C@@H](Cc1ccc(O)c(I)c1)C(=O)N[C@H](Cc1ccccc1)C(=O)O [Example 43, Hexamethyleneimino-CO-Leu-(D)Trp-(D)Ala-βAla-Tyr(I)-(D)Phe-OH] ({X1-CO}-L[dW][dA][βAla][Tyr(3-I)][dF]-OH) |
| 0.34 nM | CC(C)C[C@H](NC(=O)N1CCCCCC1)C(=O)N[C@H](Cc1c[nH]c2ccccc12)C(=O)N[C@H](C)C(=O)NCCC(=O)N[C@@H](Cc1ccc(O)cc1)C(=O)N[C@H](Cc1ccccc1)C(=O)O [Example 39, hexamethyleneimino-CO-Leu-(D)Trp-(D)Ala-βAla-Tyr-(D)Phe-OH] ({X1-CO}-L[dW][dA][βAla]Y[dF]-OH) |
